From patent US11298367B2, “Prodrugs of substituted triazole derivatives and uses thereof” (Bayer Aktiengesellschaft, priority 2017, dated 2022)
Converted amounts (≈) assume the structure as drawn. Where two headings read alike, the source gives them in different places.

Experiments:
human V1a receptor [1] = target: T1, human V1a receptor (Homo sapiens, UniProt P37288); experiment: Cellular in vitro assay for verification of prodrug conversion into drug (with/without alkaline phosphatase); assay type: cell-based; settings: human V1a CHO cells
T1 construct: expressed in transfected cells; host or cells: CHO K1 (Chinese hamster ovary), also stably transfected with a modified aequorin
T1 sequence (P37288 whole entry): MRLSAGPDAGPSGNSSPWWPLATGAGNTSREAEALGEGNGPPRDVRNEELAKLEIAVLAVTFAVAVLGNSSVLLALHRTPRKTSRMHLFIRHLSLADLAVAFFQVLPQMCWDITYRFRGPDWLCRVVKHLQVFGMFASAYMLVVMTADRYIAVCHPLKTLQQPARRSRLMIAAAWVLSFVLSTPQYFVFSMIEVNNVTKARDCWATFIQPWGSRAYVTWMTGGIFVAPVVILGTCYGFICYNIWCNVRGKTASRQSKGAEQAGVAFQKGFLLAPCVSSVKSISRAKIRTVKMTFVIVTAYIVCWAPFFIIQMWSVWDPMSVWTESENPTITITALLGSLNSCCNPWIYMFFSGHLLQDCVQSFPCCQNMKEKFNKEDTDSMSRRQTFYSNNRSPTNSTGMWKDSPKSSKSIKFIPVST
Protocol: B-4. Cellular In Vitro Assay for Verification of Prodrug Conversion into Drug
To verify the conversion of prodrugs into the respective drugs, the prodrugs are incubated with and without alkaline phosphatase. Cleavage of the phosphate moiety by alkaline phosphatase converts the prodrug into the underlying respective drug [Coleman J. E., Annu. Rev. Biophys. Biomol. Struct. 1992, 21, 441-483]. As prodrug and underlying respective drug show different IC50 values, the value of the prodrug after alkaline phosphatase treatment resembles the IC50 of the respective drug. The determination of IC50 values of compounds of the invention at the human V1a receptor is carried out using a recombinant cell line. The cell line originally derives from a hamster's ovary epithelial cell (Chinese Hamster Ovary, CHO K1, ATCC: American Type Culture Collection, Manassas, Va. 20108, USA). The test cell line constitutively expresses the human V1a receptor. Cells are also stably transfected with a modified form of the calcium-sensitive photoprotein aequorin which, after reconstitution with the cofactor coelenterazine, emits light upon increase in free calcium concentration [Rizzuto R, Simpson A W, Brini M, Pozzan T, Nature 358, 325-327 (1992); Illarionov B A, Bondar V S, Illarionova V A, Vysotski E S, Gene 153 (2), 273-274 (1995)]. The resulting vasopressin receptor cell reacts to stimulation of the recombinantly expressed V1a receptor by intracellular release of calcium ions, which can be quantified by the resulting luminescence of photoprotein. The bioluminescence of the cell line is detected using a suitable luminometer [Milligan G, Marshall F, Rees S, Trends in Pharmacological Sciences 17, 235-237 (1996)].
On the day before the assay, the cells are seeded in culture medium (DMEM/F12, 2% FCS, 2 mM glutamine, 10 mM HEPES, 5 μg/ml coelenterazine) in 384-well microtiter plates and kept in a cell incubator (96% humidity, 5% v/v CO2, 37C). On the day of the assay, 100 μl of test compounds at a concentration of 100 μM are incubated for 15 minutes with 500 units alkaline phosphatase at 37° C. in tyrode buffer (20 mM HEPES, 130 mM NaCl, 5 mM KCl, 5 mM NaHCO3, 2 mM MgCl2, pH 7,4). After incubation compounds are immediately diluted and placed for 10 minutes at 37° C. on the before seeded V1a cells. For detection of antagonistic activity of the compounds [Arg^8]-vasopressin at EC50 concentration is added and the resulting light signal is measured immediately in a luminometer.

Solubility = assay type: physicochemical; settings: 24 h room temperature, max. 500 μg/ml; for solubility at 24 h: thermodynamic from solid
Protocol: For each substance 0.5-0.6 mg are weighed exactly. In each case, sufficient medium is added to the sample in such a way that a concentration of c=500 μg/ml is obtained. This sample solution is shaken for 24 h at room temperature and 1400 rpm.
A further sample weight of 0.5-0.6 mg is required for the DMSO calibration solution. This sample is filled with DMSO to a concentration of c=600 μg/ml. Two calibration solutions are prepared from this stock solution. In a 2 ml HPLC vial, 1000 μl of DMSO are initially introduced and 34.4 μl of the stock solution are pipetted (c=20 µg/ml). […] of this solution (c=20 μg/ml) are placed in a further 2 ml HPLC vial containing 500 μl of DMSO (c=2.5 μg/ml).
After shaking the test solutions, 230 μl of the supernatant are transferred into a centrifuge tube and centrifuged at 42 000 rpm (223 000 g) for 30 min. 180 μl of the supernatant are then taken and each diluted with DMSO (1:5 sample 1; 1:100 sample 2), and transferred to HPLC vials. The two calibration solutions and the dilute sample solutions are analyzed by HPLC. Quantification is performed over the corresponding peak areas.
Distilled water; trifluoroacetic acid (Merck; 1.08262.0100); acetonitrile (HPLC grade); DMSO (Merck; 8.02912.2500).
Fluka buffer, Order No. 33643 (11.76 g citric acid, 2.57 g sodium chloride and 2.72 g sodium hydroxide).
Fluka buffer, Order No. 33646 (3.52 g potassium dihydrogenphosphate, 7.26 g sodium hydrogen phosphate).
Solution of 6.18 g sodium chloride and 3.96 g sodium dihydrogen phosphate in 1 L distilled water, adjust with 1M aqueous sodium hydroxide solution to pH 7.4.
0.6057 g TRIS was dissolved in 95 ml water, adjust to pH 8.5 with aqueous hydrochloric acid, fill with water until 100 ml volume is reached.

human V1a receptor [2] = target: T1, human V1a receptor; experiment: Cellular in vitro assay for vasopressin receptor activity (V1a, aequorin luminescence); assay type: cell-based; settings: selectivity ratio hV2/hV1a
Protocol: B-1. Cellular In Vitro Assay for Determining Vasopressin Receptor Activity
The identification of agonists and antagonists of the V1a and V2 vasopressin receptors from humans, rats and dogs as well as the quantification of the activity of the compounds of the invention is carried out using recombinant cell lines. These cell lines originally derive from a hamster's ovary epithelial cell (Chinese Hamster Ovary, CHO K1, ATCC: American Type Culture Collection, Manassas, Va. 20108, USA). The test cell lines constitutively express the human, rat or dog V1a or V2 receptors. In case of the Gaq-coupled V1a receptors, cells are also stably transfected with a modified form of the calcium-sensitive photoproteins aequorin (human and rat V1a) or obelin (dog V1a), which, after reconstitution with the cofactor coelenterazine, emit light when there are increases in free calcium concentrations [Rizzuto R, Simpson A W, Brini M, Pozzan T, Nature 358, 325-327 (1992); Illarionov B A, Bondar V S, Illarionova V A, Vysotski E S, Gene 153 (2), 273-274 (1995)]. The resulting vasopressin receptor cells react to stimulation of the recombinantly expressed Via receptors by intracellular release of calcium ions, which can be quantified by the resulting photoprotein luminescence. The Gs-coupled V2 receptors are stably transfected into cell lines expressing the gene for firefly luciferase under control of a CRE-responsible promoter. Activation of V2 receptors induces the activation of the CRE-responsive promoter via cAMP increase, thereby inducing the expression of firefly luciferase. The light emitted by photoproteins of V1a cell lines as well as the light emitted by firefly luciferase of V2 cell lines corresponds to the activation or inhibition of the respective vasopressin receptor. The bioluminescence of the cell lines is detected using a suitable luminometer [Milligan G, Marshall F, Rees S, Trends in Pharmacological Sciences 17, 235-237 (1996)].
Vasopressin V1a Receptor Cell Lines:
On the day before the assay, the cells are plated out in culture medium (DMEM/F12, 2% FCS, 2 mM glutamine, 10 mM HEPES, 5 μg/ml coelenterazine) in 384-well microtiter plates and kept in a cell incubator (96% humidity, 5% v/v CO2, 37C). On the day of the assay, test compounds in various concentrations are placed for 10 minutes in the wells of the microtiter plate before the agonist [Arg^8]-vasopressin at EC50 concentration is added. The resulting light signal is measured immediately in a luminometer.
Table 1A below lists individual IC50 values for the compounds of the invention (including racemic mixtures as well as separated enantiomers) that were obtained from cell lines transfected with the human V1a or V2 receptor. This means these IC50 values are the values for the prodrug and not for the underlying respective drug as the prodrug is mainly stable under the assay conditions.

[3] = pre-incubation 15 min with 500 units alkaline phosphatase at 37° C., read-out: IC50 with AP
[4] = without alkaline phosphatase, read-out: IC50 without AP
[5] = Tris buffer pH 8.5, pH 8.5, aqueous buffer, pH = 8.5 Tris buffer

IC50 (human V1a receptor [1]; [3]) | IC50 (human V1a receptor [1]; [4]) | solubility at 24 h (Solubility; [5]) | Solubility (Solubility; pH = 4 citrate buffer) | Solubility (Solubility; pH = 7.0 buffer) | ratio IC50 hV2/hV1a (human V1a receptor [2]) | solubility at 24 h (Solubility; citrate buffer pH 4, pH 4, aqueous buffer, pH = 4 citrate buffer) | solubility at 24 h (Solubility; phosphate buffer pH 7, pH 7, aqueous buffer, pH = 7.0 buffer) | Compound
1.35 nM | 1.35 nM | 4.3 µg/mL (≈ 7.47 µM) | not detectable | not detectable | 41.4 | – | – | NC(=O)c1nc(Cn2nc(-c3ccc(Cl)cc3)n(C[C@H](O)C(F)(F)F)c2=O)nn1-c1ccccc1C(F)(F)F [Example 6A, 3-({3-(4-Chlorophenyl)-5-oxo-4-[(2S)-3,3,3-trifluoro-2-hydroxypropyl]-4,5-dihydro-1H-1,2,4-triazol-1-yl}methyl)-1-[2-(trifluoromethyl)phenyl]-1H-1,2,4-triazole-5-carboxamide]
1.1 nM | 1.7 nM | 4 µg/mL (≈ 7.36 µM) | – | – | 38.2 | 5.9 µg/mL (≈ 10.9 µM) | 2.8 µg/mL (≈ 5.15 µM) | NC(=O)c1nc(Cn2nc(-c3ccc(Cl)cc3)n(C[C@H](O)C(F)(F)F)c2=O)nn1-c1ncccc1Cl [Example 8A, 3-({3-(4-Chlorophenyl)-5-oxo-4-[(2S)-3,3,3-trifluoro-2-hydroxypropyl]-4,5-dihydro-1H-1,2,4-triazol-1-yl}methyl)-1-(3-chloropyridin-2-yl)-1H-1,2,4-triazole-5-carboxamide]
